Results reported in patent US20260199323A1, “LIGAND COMPOUNDS FOR E3 UBIQUITIN LIGASE, PROTEIN DEGRADERS DEVELOPED ON BASIS OF LIGAND COMPOUNDS, AND USES THEREOF” (GLUETACS THERAPEUTICS (SHANGHAI) CO., LTD., priority 2021, published 2026).
Where two headings read alike, the source gives them in different places. Values belong to the compound of their own block, whether it stands above or below them.

Experiments:
[1] = system: T47D; test: CCK-8 tumor cell proliferation, T47D; assay type: cell-based, Human; conditions: for IC50: Homo sapiens, T47D
Procedure: (§1) The tumor cells used herein were cultured in a cell culture medium listed in table 4 at 37° C. in an incubator with 5% CO2. Prior to experimentation, all cells used were correctly identified by STR profiling, and tested negative for mycoplasma through routine screenings.
(§2) IC50 values of the compounds of the present disclosure (including the compounds in Tables 1 and 3, and compounds of examples) were measured using the Meilun Cell Counting Kit-8 kit from Dalian Meilun Biotech Co., Ltd. Assay details are as follows: tumor cells were seeded in a 96-well plate at a density listed in Table 5. After 24 h, 100 μL of the inoculated cells were treated with 0.5 μL of the compounds of the present disclosure (including the compounds in Tables 1 and 3, and compounds of examples) at 10 different successively decreasing concentrations (starting at the highest concentration of 10 μM; 5-fold serial dilutions). After the cells were treated with the compounds of the present disclosure for a period of time, the cell viability detection reagent was added to the culture medium for cell viability assessment according to the instructions provided with the CCK-8 kit. […] The growth inhibition of the compounds of the present disclosure on cells was plotted by Prism Graphpad software, and the IC50 values of the compounds of the present disclosure were calculated therefrom.

[2] = system: MDA-MB-231; test: CCK-8 tumor cell proliferation, MDA-MB-231; assay type: cell-based, Human; design: IC50 for inhibiting the proliferation of tumor cells, MDA-MB-231: scale not given here; conditions: Table 8, designed based on ER inhibitors; 96 h
Summary of the method: (§3)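 Using the CCK-8 kit, viability of plated cells is assessed after exposure to compound across ten concentrations (5-fold serial dilution, top 10 μM) added at 24 h. IC50 is obtained by curve fitting of growth inhibition.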

[3] = system: Kasumi-1; test: CCK-8 tumor cell proliferation, Kasumi-1; assay type: cell-based, Human; conditions: for IC50 for inhibiting the proliferation of tumor cells, Kasumi-1: Table 8, designed based on ER inhibitors, 72 h; for IC50: Homo sapiens, Kasumi-1, read-out: IC50 inhibiting proliferation of tumor cells, Kasumi-1
Summary of the method: as §3

[4] = system: HCC827; test: CCK-8 tumor cell proliferation, HCC827; assay type: cell-based, Human; conditions: Table 8, designed based on ER inhibitors, 96 h
Procedure: The tumor cells used herein were cultured in a cell culture medium listed in table 4 at 37° C. in an incubator with 5% CO2.
as §2, with “After” for “IC50 values of the compounds of the present disclosure (including the compounds in Tables 1 and 3, and compounds of examples) were measured using the Meilun Cell Counting Kit-8 kit from Dalian Meilun Biotech Co., Ltd. Assay details are as follows: tumor cells were seeded in a 96-well plate at a density listed in Table 5. After”

[5] = system: Hep3B2.7-1; test: CCK-8 tumor cell proliferation, Hep3B2.7-1; assay type: cell-based, Human; conditions: for IC50: Homo sapiens
Procedure: as §1, §2

[6] = system: SU-DHL-6; test: CCK-8 tumor cell proliferation, SU-DHL-6; assay type: cell-based, Human; conditions: 72 h
Procedure: as §1, §2

[7] = system: CCRF-CEM; test: CCK-8 tumor cell proliferation, CCRF-CEM; assay type: cell-based, Human; design: IC50 for inhibiting the proliferation of tumor cells, CCRF-CEM: scale not given here; conditions: for IC50: Homo sapiens, CCRF-CEM
Summary of the method: as §3

[8] = system: MM.1S; test: CCK-8 tumor cell proliferation, MM.1S; assay type: cell-based; conditions: for IC50: Homo sapiens, MM1.S
Summary of the method: as §3

[9] = system: SW620; test: CCK-8 tumor cell proliferation, SW620; assay type: cell-based, Human; conditions: Table 8, designed based on ER inhibitors; 96 h
Summary of the method: as §3

[10] = system: Mino; test: CCK-8 tumor cell proliferation, Mino; assay type: cell-based, Human; conditions: 72 h
Summary of the method: as §3

[11] = system: MM.1R; test: CCK-8 tumor cell proliferation, MM.1R; assay type: cell-based; conditions: read-out: IC50 inhibiting proliferation of tumor cells, MM.1R
Summary of the method: as §3

[12] = system: Jurkat; test: CCK-8 tumor cell proliferation, Jurkat; assay type: cell-based, Human; conditions: Homo sapiens, read-out: IC50 inhibiting proliferation of tumor cells, Jurkat
Summary of the method: as §3

[13] = Table 8, designed based on ER inhibitors, 96 h
[14] = Table 8, designed based on ER inhibitors
[15] = Table 8, designed based on ER inhibitors, 72 h
[16] = Table 14, designed based on CDK4/6 inhibitors
[17] = Table 22, NTRK inhibitor based, read-out: IC50 inhibiting proliferation of tumor cells, T47D
[18] = Table 22, NTRK inhibitor based, HEP3B2.7-1, read-out: IC50 inhibiting proliferation of tumor cells, HEP3B2.7-1
[19] = Table 22, NTRK inhibitor based, read-out: IC50 inhibiting proliferation of tumor cells, CCRF-CEM
[20] = Table 22, NTRK inhibitor based, MM.1S, read-out: IC50 inhibiting proliferation of tumor cells, MM.1S

IC50 for inhibiting the proliferation of tumor cells, T47D [1, 13]: A+
IC50 for inhibiting the proliferation of tumor cells, MDA-MB-231 [2]: A+
IC50 for inhibiting the proliferation of tumor cells, Kasumi-1 [3]: A+
IC50 for inhibiting the proliferation of tumor cells, HCC827 [4]: A+
IC50 for inhibiting the proliferation of tumor cells, Hep3B2.7-1 [5, 13]: A+
IC50 for inhibiting the proliferation of tumor cells, SU-DHL-6 [6, 14]: A+
IC50 for inhibiting the proliferation of tumor cells, CCRF-CEM [7, 13]: A+
IC50 for inhibiting the proliferation of tumor cells, MM.1S [8, 15]: A+
IC50 for inhibiting the proliferation of tumor cells, SW620 [9]: A+
Compound: CCC(=C(c1ccc(O)cc1)c1ccc(OCCNCc2ccc3c(c2)CN(C2CCC(=O)NC2=O)C3=O)cc1)c1ccc(O)cc1 (centres unmarked) [GT-03214, 3-(5-(((2-(4-(1,2-bis(4-hydroxyphenyl)but-1-en-1-yl)phenoxy)ethyl)amino)methyl)-1-oxoisoindolin-2-yl)piperidine-2,6-dione]

IC50 ([1]; Table 8, designed based on ER inhibitors, 96 h, read-out: IC50 for inhibiting the proliferation of tumor cells, T47D): > 10000 nM
IC50 ([4]; Homo sapiens, HCC827, read-out: IC50 for inhibiting the proliferation of tumor cells, HCC827): > 10000 nM
IC50 ([5]; Table 8, designed based on ER inhibitors, 96 h, read-out: IC50 for inhibiting the proliferation of tumor cells, Hep3B2.7-1): > 10000 nM
IC50 ([7]; Table 8, designed based on ER inhibitors, 96 h, read-out: IC50 for inhibiting the proliferation of tumor cells, CCRF-CEM): > 10000 nM
IC50 ([8]; Table 8, designed based on ER inhibitors, 72 h, read-out: IC50 for inhibiting the proliferation of tumor cells, MM.1S): > 10000 nM
Compound: CC/C(=C(/c1ccc(O)cc1)c1ccc(OCCN)cc1)c1ccc(O)cc1 [GT-03308, reference compound]

IC50 for inhibiting the proliferation of tumor cells, SU-DHL-6 [6, 16]: A+
Compound: CN(C)C(=O)c1cc2cnc(Nc3ccc(N4CCC(N(C)Cc5ccc6c(c5)CN(C5CCC(=O)NC5=O)C6=O)CC4)cn3)nc2n1C1CCCC1 (centres unmarked) [GT-03544, 7-cyclopentyl-2-((5-(4-(((2-(2,6-dioxopiperidin-3-yl)-1-oxoisoindolin-5-yl)methyl)(methyl)amino)piperidin-1-yl)pyridin-2-yl)amino)-N,N-dimethyl-7H-pyrrolo[2,3-d]pyrimidine-6-carboxamide]

IC50 for inhibiting the proliferation of tumor cells, T47D [1, 13]: A+
IC50 for inhibiting the proliferation of tumor cells, Kasumi-1 [3]: A+
IC50 for inhibiting the proliferation of tumor cells, HCC827 [4]: A+
IC50 for inhibiting the proliferation of tumor cells, SU-DHL-6 [6, 14]: A+
IC50 for inhibiting the proliferation of tumor cells, CCRF-CEM [7, 13]: A+
IC50 for inhibiting the proliferation of tumor cells, MM.1S [8, 15]: A+
IC50 for inhibiting the proliferation of tumor cells, Mino [10, 14]: A+
IC50 for inhibiting the proliferation of tumor cells, SW620 [9]: A+
Compound: CCC(=C(c1ccc(O)cc1)c1ccc(N2CCN(Cc3ccc4c(c3)CN(C3CCC(=O)NC3=O)C4=O)CC2)cc1)c1ccc(O)cc1 (centres unmarked) [GT-03551, 3-(5-((4-(4-(1,2-bis(4-hydroxyphenyl)but-1-en-1-yl)phenyl)piperazin-1-yl)methyl)-1-oxoisoindolin-2-yl)piperidine-2,6-dione]

IC50 for inhibiting the proliferation of tumor cells, T47D [1, 13]: A+
IC50 for inhibiting the proliferation of tumor cells, MDA-MB-231 [2]: A+
IC50 for inhibiting the proliferation of tumor cells, Kasumi-1 [3]: A+
IC50 for inhibiting the proliferation of tumor cells, HCC827 [4]: A+
IC50 for inhibiting the proliferation of tumor cells, Hep3B2.7-1 [5, 13]: A+
IC50 for inhibiting the proliferation of tumor cells, SU-DHL-6 [6, 14]: A+
IC50 for inhibiting the proliferation of tumor cells, CCRF-CEM [7, 13]: A+
IC50 for inhibiting the proliferation of tumor cells, MM.1S [8, 15]: A+
IC50 for inhibiting the proliferation of tumor cells, Mino [10, 14]: A+
IC50 for inhibiting the proliferation of tumor cells, SW620 [9]: A+
Compound: O=C1CCC(N2Cc3cc(CN4CCN(c5ccc(C(=C(CCCl)c6ccc(O)cc6)c6ccc(O)cc6)cc5)CC4)ccc3C2=O)C(=O)N1 (centres unmarked) [GT-03638, 3-(5-((4-(4-(4-chloro-1,2-bis(4-hydroxyphenyl)but-1-en-1-yl)phenyl)piperazin-1-yl)methyl)-1-oxoisoindolin-2-yl)piperidine-2,6-dione]

IC50 for inhibiting the proliferation of tumor cells, SU-DHL-6 [6, 16]: A+
IC50 for inhibiting the proliferation of tumor cells, Mino [10, 16]: A+
Compound: Cc1nc2c(F)cc(-c3nc(Nc4ccc(N5CCC(N(C)Cc6ccc7c(c6)CN(C6CCC(=O)NC6=O)C7=O)CC5)cn4)ncc3F)cc2n1C(C)C (centres unmarked) [GT-03639, 3-(5-(((1-(6-((5-fluoro-4-(4-fluoro-1-isopropyl-2-methyl-1H-benzo[d]imidazol-6-yl)pyrimidin-2-yl)amino)pyridin-3-yl)piperidin-4-yl)(methyl)amino)methyl)-1-oxoisoindolin-2-yl)piperidine-2,6-dione]

IC50 [1, 17]: 100 to 500 nM
IC50 ([3]; Table 22, NTRK inhibitor based): < 50 nM
IC50 [5, 18]: < 50 nM
IC50 ([11]; Table 22, NTRK inhibitor based): < 50 nM
IC50 [7, 19]: < 50 nM
IC50 [8, 20]: 50 to 100 nM
IC50 ([12]; Table 22, NTRK inhibitor based): < 50 nM
Compound: O=C1CCC(N2Cc3cc(CN4CCN(c5cccc(-c6cnc7ccc(N8CCC[C@@H]8c8cccc(F)c8)nn67)n5)CC4)cc(F)c3C2=O)C(=O)N1 (stereo partly drawn) [GT-03867, 3-(7-fluoro-5-((4-(6-(6-((R)-2-(3-fluorophenyl)pyrrolidin-1-yl)imidazo[1,2-b]pyridazin-3-yl)pyridin-2-yl)piperazin-1-yl)methyl)-1-oxoisoindolin-2-yl)piperidine-2,6-dione]

IC50 [1, 17]: < 50 nM
IC50 ([3]; Table 22, NTRK inhibitor based): < 50 nM
IC50 [5, 18]: < 50 nM
IC50 ([11]; Table 22, NTRK inhibitor based): < 50 nM
IC50 [7, 19]: < 50 nM
IC50 [8, 20]: < 50 nM
IC50 ([12]; Table 22, NTRK inhibitor based): < 50 nM
Compound: O=C1CCC(N2Cc3cc(CN4CCN(c5cccc(-c6cnn7ccc(N8CCC[C@@H]8c8cc(F)ccc8F)nc67)n5)CC4)c(F)cc3C2=O)C(=O)N1 (stereo partly drawn) [GT-04264, 3-(5-((4-(6-(5-((R)-2-(2,5-difluorophenyl)pyrrolidin-1-yl)pyrazolo[1,5-a]pyrimidin-3-yl)pyridin-2-yl)piperazin-1-yl)methyl)-6-fluoro-1-oxoisoindolin-2-yl)piperidine-2,6-dione]

IC50 ([1]; Table 22, given as number, read-out: IC50 inhibiting proliferation of tumor cells, T47D): > 10000 nM
IC50 ([3]; Table 22, given as number): > 10000 nM
IC50 ([5]; Table 22, HEP3B2.7-1, given as number, read-out: IC50 inhibiting proliferation of tumor cells, HEP3B2.7-1): > 10000 nM
IC50 ([11]; Table 22, given as number): > 10000 nM
IC50 ([7]; Table 22, given as number, read-out: IC50 inhibiting proliferation of tumor cells, CCRF-CEM): > 10000 nM
IC50 ([8]; Table 22, MM.1S, given as number, read-out: IC50 inhibiting proliferation of tumor cells, MM.1S): > 10000 nM
IC50 ([12]; Table 22, given as number): > 10000 nM
Compound: O=C(Nc1cnn2ccc(N3CCC[C@@H]3c3cc(F)ccc3F)nc12)N1CC[C@H](O)C1 [larotrectinib]
